Source: patent US20220162191A1, “SMALL MOLECULE MODULATORS OF IL-17” (LEO PHARMA A/S, priority 2019, published 2022)

Biological target: T1, human IL-17AA (Homo sapiens, UniProt Q16552)
T1 construct: host or cells: HEK (human embryonic kidney) cells
T1 sequence (Q16552 24-155) 1: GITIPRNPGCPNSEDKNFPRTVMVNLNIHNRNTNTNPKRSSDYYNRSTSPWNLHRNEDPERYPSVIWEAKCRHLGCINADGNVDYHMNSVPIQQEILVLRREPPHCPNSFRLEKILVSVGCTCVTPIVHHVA
T1 sequence (Q16552 24-155) 2: T1 sequence (Q16552 24-155) 1
Assay: IL-8 release assay in human epithelial keratinocytes adult (HEKa)
Assay type: cell-based
Conditions: 3 ng/ml human IL-17AA + 10 ng/ml human TNFalpha, 68-72 h, IL-8 by HTRF, read-out: Rel EC50 L-8 release assay
Outline: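 Adult human keratinocytes in Epilife with HKGS minus hydrocortisone, treated with compound then stimulated with final 3 ng/ml HEK-derived human IL-17AA plus 10 ng/ml TNF-alpha for 68–72 h at 37 °C; TNF-alpha alone defines 100% inhibition. Secreted IL-8 by HTRF; relative IC50 and Emax from four-parameter fits.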

SMILES | EC50 [nM]
Cc1nccn1-c1ccc(NC(=O)[C@@H](NC(=O)c2ccnn2C)[C@@H]2CCCc3ccc(-c4ccnc(N5C[C@H]6C[C@@H]5CO6)c4)cc32)cc1 [Example 403, 2-methyl-N-[(1S)-2-[4-(2-methylimidazol-1-yl)anilino]-1-[(1R)-7-[2-[(1R,4R)-2-oxa-5-azabicyclo[2.2.1]heptan-5-yl]-4-pyridyl]tetralin-1-yl]-2-oxo-ethyl]pyrazole-3-carboxamide] | 100 to 1000
Cn1cncc1-c1ccc(NC(=O)C(Cc2cc(-c3ccnc(N4CCNCC4)c3)ccc2Cl)NC(=O)c2ccnn2C)cc1 (stereo not drawn) [Example 197, N-[1-[[2-chloro-5-(2-piperazin-1-yl-4-pyridyl)phenyl]methyl]-2-[4-(3-methylimidazol-4-yl)anilino]-2-oxo-ethyl]-2-methyl-pyrazole-3-carboxamide] | 100 to 1000
Cc1nocc1C(=O)NC(Cc1cc(-c2cccc(C(=O)N3CCC3)c2)ccc1Cl)C(=O)Nc1ccc(-c2nncn2C)cc1 (stereo not drawn) [Example 113, N-[1-[[5-[3-(azetidine-1-carbonyl)phenyl]-2-chloro-phenyl]methyl]-2-[4-(4-methyl-1,2,4-triazol-3-yl)anilino]-2-oxo-ethyl]-3-methyl-isoxazole-4-carboxamide] | > 1000
Cn1cnnc1-c1ccc(NC(=O)C(Cc2cc(-c3ccc(O)c(C(=O)N4CCC4)c3)ccc2Cl)NC(=O)c2ccnn2C)cc1 (stereo not drawn) [Example 172, N-[1-[[5-[3-(azetidine-1-carbonyl)-4-hydroxy-phenyl]-2-chloro-phenyl]methyl]-2-[4-(4-methyl-1,2,4-triazol-3-yl)anilino]-2-oxo-ethyl]-2-methyl-pyrazole-3-carboxamide] | > 1000
Cn1cnnc1-c1ccc(NC(=O)C(Cc2cc(-c3ccc(O)c(CN4CCNCC4)c3)ccc2Cl)NC(=O)c2ccnn2C)cc1 (stereo not drawn) [Example 157, N-[1-[[2-chloro-5-[4-hydroxy-3-(piperazin-1-ylmethyl)phenyl]phenyl]methyl]-2-[4-(4-methyl-1,2,4-triazol-3-yl)anilino]-2-oxo-ethyl]-2-methyl-pyrazole-3-carboxamide] | 100 to 1000
Cc1n[nH]c(C)c1-c1ccc(NC(=O)[C@@H](NC(=O)C2(F)CC2)[C@@H]2CCCc3ccc(-c4cnn(C(F)F)c4)cc32)cc1 [Example 393, N-[(1S)-1-[(1R)-7-[1-(difluoromethyl)pyrazol-4-yl]tetralin-1-yl]-2-[4-(3,5-dimethyl-1H-pyrazol-4-yl)anilino]-2-oxo-ethyl]-1-fluoro-cyclopropanecarboxamide] | 100 to 1000
CCCCn1cc(-c2ccc(Cl)c(C[C@H](NC(=O)c3ccnn3C)C(=O)Nc3ccc(-c4cncn4C)cc3)c2)cn1 [Example 171] | 100 to 1000
Cc1nccn1-c1ccc(NC(=O)[C@@H](NC(=O)c2ccnn2C)[C@@H]2CCCc3ccc(-c4ccnc(N5C[C@@H]6C[C@H]5CO6)c4)cc32)cc1 [Example 402, 2-methyl-N-[(1S)-2-[4-(2-methylimidazol-1-yl)anilino]-1-[(1R)-7-[2-[(1S,4S)-2-oxa-5-azabicyclo[2.2.1]heptan-5-yl]-4-pyridyl]tetralin-1-yl]-2-oxo-ethyl]pyrazole-3-carboxamide] | < 100
Cn1cncc1-c1ccc(NC(=O)C(Cc2cc(-c3ccnc(N4CCOCC4)c3)ccc2Cl)NC(=O)c2ccnn2C)cc1 (stereo not drawn) [Example 165, N-[1-[[2-chloro-5-(2-morpholino-4-pyridyl)phenyl]methyl]-2-[4-(3-methylimidazol-4-yl)anilino]-2-oxo-ethyl]-2-methyl-pyrazole-3-carboxamide] | 100 to 1000
Cn1cncc1-c1ccc(NC(=O)C(Cc2cc(-c3ccnc(N4CC5(COC5)C4)c3)ccc2Cl)NC(=O)c2ccnn2C)cc1 (stereo not drawn) [Example 183, N-[1-[[2-chloro-5-[2-(6-oxa-2-azaspiro[3.3]heptan-2-yl)-4-pyridyl]phenyl]methyl]-2-[4-(3-methylimidazol-4-yl)anilino]-2-oxo-ethyl]-2-methyl-pyrazole-3-carboxamide] | 100 to 1000
CC(C)Cn1cc(-c2ccc(Cl)c(C[C@H](NC(=O)c3ccnn3C)C(=O)Nc3ccc(-c4cncn4C)cc3)c2)nn1 [Example 212, N-[(1S)-1-[[2-chloro-5-(1-isobutyltriazol-4-yl)phenyl]methyl]-2-[4-(3-methylimidazol-4-yl)anilino]-2-oxo-ethyl]-2-methyl-pyrazole-3-carboxamide] | 100 to 1000
Cn1cncc1-c1ccc(NC(=O)C(Cc2cc(-c3cccc(C(C)(C)N)c3)ccc2Cl)NC(=O)c2ccnn2C)cc1 (stereo not drawn) [Example 176, N-[1-[[5-[3-(1-amino-1-methyl-ethyl)phenyl]-2-chloro-phenyl]methyl]-2-[4-(3-methylimidazol-4-yl)anilino]-2-oxo-ethyl]-2-methyl-pyrazole-3-carboxamide] | < 100

Results, then the compound that gave them:

EC50 [nM] | SMILES
> 1000 | Cc1n[nH]cc1-c1ccc(NC(=O)C(NC(=O)OC2CC2)C(c2ccccc2)c2cccc(-c3ccc(=O)n(C(C)C)c3)c2)cc1 (single isomer, unassigned; diastereomer 3) [Example 244, cyclopropyl N-[1-[[3-(1-isopropyl-6-oxo-3-pyridyl)phenyl]-phenyl-methyl]-2-[4-(3-methyl-1H-pyrazol-4-yl)anilino]-2-oxo-ethyl]carbamate (Diastereomer 3)]
< 100 | Cc1n[nH]c(C)c1-c1ccc(NC(=O)[C@@H](NC(=O)C2(F)CC2)[C@@H]2CCc3ccc(-c4cc(C)c(=O)n(C(C)C)c4)cc32)cc1 [Example 357, N-[(1S)-2-[4-(3,5-dimethyl-1H-pyrazol-4-yl)anilino]-1-[(1R)-6-(1-isopropyl-5-methyl-6-oxo-3-pyridyl)indan-1-yl]-2-oxo-ethyl]-1-fluoro-cyclopropanecarboxamide]
100 to 1000 | Cn1cnnc1-c1ccc(NC(=O)C(Cc2cc(-c3cccc(C(C)(C)CO)c3)ccc2Cl)NC(=O)c2ccnn2C)cc1 (stereo not drawn) [Example 164, N-[1-[[2-chloro-5-[3-(2-hydroxy-1,1-dimethyl-ethyl)phenyl]phenyl]methyl]-2-[4-(4-methyl-1,2,4-triazol-3-yl)anilino]-2-oxo-ethyl]-2-methyl-pyrazole-3-carboxamide]
< 100 | Cc1n[nH]cc1-c1ccc(NC(=O)C(NC(=O)c2ccnn2C)C(c2ccccc2)c2cccc(-c3ccc(=O)n(C(C)C)c3)c2)cc1 (single isomer, unassigned; diastereomer 2) [Example 236, N-[1-[[3-(1-isopropyl-6-oxo-3-pyridyl)phenyl]-phenyl-methyl]-2-[4-(3-methyl-1H-pyrazol-4-yl)anilino]-2-oxo-ethyl]-2-methyl-pyrazole-3-carboxamide (Diastereomer 2)]
100 to 1000 | Cc1nocc1C(=O)NC(Cc1cc(-c2cccc(C(=O)N3CC(F)C3)c2)ccc1Cl)C(=O)Nc1ccc(-c2nncn2C)cc1 (stereo not drawn) [Example 120, N-[1-[[2-chloro-5-[3-(3-fluoroazetidine-1-carbonyl)phenyl]phenyl]methyl]-2-[4-(4-methyl-1,2,4-triazol-3-yl)anilino]-2-oxo-ethyl]-3-methyl-isoxazole-4-carboxamide]
100 to 1000 | Cc1nocc1C(=O)NC(Cc1cc(-c2ccc(=O)n(C(C)C)c2)ccc1Cl)C(=O)Nc1ccc(-c2cn[nH]c2)cc1 (stereo not drawn) [Example 80, N-[1-[[2-chloro-5-(1-isopropyl-6-oxo-3-pyridyl)phenyl]methyl]-2-oxo-2-[4-(1H-pyrazol-4-yl)anilino]ethyl]-3-methyl-isoxazole-4-carboxamide]
100 to 1000 | Cc1n[nH]cc1-c1ccc(NC(=O)C(NC(=O)OC2CC2)C(c2ccccc2)c2cccc(-c3ccc(=O)n(C(C)C)c3)c2)cc1 (single isomer, unassigned; diastereomer 2) [Example 243, cyclopropyl N-[1-[[3-(1-isopropyl-6-oxo-3-pyridyl)phenyl]-phenyl-methyl]-2-[4-(3-methyl-1H-pyrazol-4-yl)anilino]-2-oxo-ethyl]carbamate (Diastereomer 2)]
100 to 1000 | Cc1ncn(C)c1-c1ccc(NC(=O)[C@H](Cc2cc(-c3ccc(=O)n(C(C)C)c3)ccc2Cl)NC(=O)c2ccnn2C)cc1 [Example 143, N-[(1S)-1-[[2-chloro-5-(1-isopropyl-6-oxo-3-pyridyl)phenyl]methyl]-2-[4-(3,5-dimethylimidazol-4-yl)anilino]-2-oxo-ethyl]-2-methyl-pyrazole-3-carboxamide]
> 1000 | Cc1ncnn1-c1ccc(NC(=O)C(Cc2cc(-c3ccc(=O)n(C(C)C)c3)ccc2Cl)NC(=O)c2ccnn2C)cc1 (stereo not drawn) [Example 88, N-[1-[[2-chloro-5-(1-isopropyl-6-oxo-3-pyridyl)phenyl]methyl]-2-[4-(5-methyl-1,2,4-triazol-1-yl)anilino]-2-oxo-ethyl]-2-methyl-pyrazole-3-carboxamide]
100 to 1000 | CN1CCOC[C@@H]1c1cccc(-c2ccc(Cl)c(C[C@H](NC(=O)c3ccnn3C)C(=O)Nc3ccc(-c4cncn4C)cc3)c2)c1 [Example 217, N-[(1S)-1-[[2-chloro-5-[3-[(3S)-4-methylmorpholin-3-yl]phenyl]phenyl]methyl]-2-[4-(3-methylimidazol-4-yl)anilino]-2-oxo-ethyl]-2-methyl-pyrazole-3-carboxamide]
100 to 1000 | CC(C)n1cc(-c2ccc(Cl)c(CC(NC(=O)c3ccnn3C)C(=O)Nc3ccc(-c4c[nH]nc4C(F)(F)F)cc3)c2)ccc1=O (stereo not drawn) [Example 121, N-[1-[[2-chloro-5-(1-isopropyl-6-oxo-3-pyridyl)phenyl]methyl]-2-oxo-2-[4-[3-(trifluoromethyl)-1H-pyrazol-4-yl]anilino]ethyl]-2-methyl-pyrazole-3-carboxamide]
100 to 1000 | Cc1cnn(C)c1-c1ccc(NC(=O)[C@H](Cc2cc(-c3ccc(=O)n(C(C)C)c3)ccc2Cl)NC(=O)c2cn[nH]c2)cc1 [Example 323, N-[(1S)-1-[[2-chloro-5-(1-isopropyl-6-oxo-3-pyridyl)phenyl]methyl]-2-[4-(2,4-dimethylpyrazol-3-yl)anilino]-2-oxo-ethyl]-1H-pyrazole-4-carboxamide]
